Data as given in patent publication US4673436A, “N, S containing corrosion inhibitors” (Exxon Chemical Patents Inc., priority 1986, dated 1987).

Columns and labels:
[1] = Film persistent corrosion wheel test (50-50 3% NaCl brine - Mentor, saturated CO2 + 100 ppm H2S), Table IV; conditions: 160° F., film 1 hr, rinse 1 hr, run 24 hrs, single data points
Experimental: (§1) Twelve quaternary ammonium salts according to the present invention, were tested under four standard sets of corrosion wheel test conditions. These include a sweet-sour test in an all water system under a range of concentrations from 4-256 ppm (TABLE I). Tests 2 and 3 were run under sweet (TABLE III), and sour conditions (TABLE II) at low (4 ppm) and high (256 ppm) concentrations only. A film persistency test (TABLE IV) was also run for completeness of the screening sequence; however, it was not expected that these water soluble compounds would perform well under these test conditions. Due to the low solubility of some C18 derivatives, 20% activity was adopted as a standard, with the C18 compounds being submitted at 10% activity and added at double concentration to the test fluids. […] Compounds are generally water and low brine soluble, hydrocarbon dispersible with some C18 derivatives being soluble in both fresh water and hydrocarbon.
Blank weight loss: 58.3 ± 3.3 mg
Film 1 hr, Rinse 1 hr, Run 24 hrs.
(§2) Fluids: 50-50 3% NaCl brine - Mentor
(§3) Saturated CO2 + 100 ppm H2 S
Single data points with triplicate blanks

[2] = Corrosion wheel test, sweet-sour, all water system (3% NaCl brine, saturated CO2 + 100 ppm H2S), Table I; conditions: 160° F., 24 hours, 3% NaCl brine only
Experimental: as §1
Blank weight loss: 40 ± 0.9 mg
(§4) Fluids: 3% NaCl brine only
as §3
(§5) Duplicates w/ triplicate blanks

[3] = Corrosion wheel test, sour (3% NaCl brine, saturated N2 + 500 ppm H2S), Table II; conditions: 160° F., 24 hours, 3% NaCl brine only
Experimental: as §1
Blank weight loss: 55.8 ± 1.0 mg
as §4
Saturated N2 + 500 ppm H2 S
Duplicates and triplicate blanks

[4] = Inhibitor solubility test, Table V; assay type: physicochemical; conditions: 20% active inhibitor added at 0.5% by volume; observed initially and after 24 hours
[5] = Corrosion wheel test, sweet (50-50 3% NaCl brine - Mentor, saturated CO2 only), Tables III, VI, VII; conditions: Table III, 160° F., 24 hours
Experimental: Twelve quaternary ammonium salts according to the present invention, were tested under four standard sets of corrosion wheel test conditions. These include a sweet-sour test in an all water system under a range of concentrations from 4-256 ppm (TABLE I). Tests 2 and 3 were run under sweet (TABLE III), and sour conditions (TABLE II) at low (4 ppm) and high (256 ppm) concentrations only.
as §2, §5
Fluids: 50-50 - 3% NaCl brine - Mentor

[6] = as above; conditions: for % Protection @ 2 ppm / % Protection @ 4 ppm / % Protection @ 8 ppm / % Protection @ 32 ppm / % Protection @ 128 ppm: 160° F., 24 hours, saturated CO2 only; for corrosion protection / performance (in words): CO2 only corrosive environment
[7] = Table VII, thiol addition comparison

CCCCCCCCCCCCCCCCCCSCCC[N+](C)(C)C [Compound 12]
% Protection @ 10,000 ppm [1]: 14% | % Protection @ 4 ppm [2]: 49% | % Protection @ 8 ppm [2]: 56% | % Protection @ 16 ppm [2]: 57% | % Protection @ 256 ppm [2]: 69% | % Protection @ 4 ppm [3]: 14% | % Protection @ 256 ppm [3]: 81% | Solubility in 5% NaCl brine [4]: insol | Solubility in aromatic naphtha [4]: sol | Solubility in distilled water [4]: sol | Solubility in kerosene [4]: disp | % Protection @ 4 ppm [5]: 50% | % Protection @ 256 ppm [5]: 83%

CCCCCCCCCCCCCCCCCC[N+](C)(C)CCS [Compound 3]
% Protection @ 10,000 ppm [1]: 53% | % Protection @ 4 ppm [2]: 31% | % Protection @ 8 ppm [2]: 41% | % Protection @ 16 ppm [2]: 58% | % Protection @ 256 ppm [2]: 60% | % Protection @ 4 ppm [3]: 11% | % Protection @ 256 ppm [3]: 83% | Solubility in 5% NaCl brine [4]: disp | Solubility in aromatic naphtha [4]: sol | Solubility in distilled water [4]: sol | Solubility in kerosene [4]: sol | % Protection @ 2 ppm ([6]; Table VI confirmatory test): 18% | % Protection @ 4 ppm ([6]; Table VI confirmatory test): 18% | % Protection @ 8 ppm ([6]; Table VI confirmatory test): 76% | % Protection @ 32 ppm ([6]; Table VI confirmatory test): 79% | % Protection @ 128 ppm ([6]; Table VI confirmatory test): 81% | % Protection @ 4 ppm [5]: 62% | % Protection @ 256 ppm [5]: 92%

CCCCCCCCCCCCSCCC[N+](C)(C)C [Compound 11]
% Protection @ 10,000 ppm [1]: 20% | % Protection @ 4 ppm [2]: 21% | % Protection @ 8 ppm [2]: 27% | % Protection @ 16 ppm [2]: 35% | % Protection @ 256 ppm [2]: 79% | % Protection @ 4 ppm [3]: 15% | % Protection @ 256 ppm [3]: 80% | Solubility in 5% NaCl brine [4]: sol | Solubility in aromatic naphtha [4]: disp | Solubility in distilled water [4]: sol | Solubility in kerosene [4]: disp | % Protection @ 4 ppm [5]: 60% | % Protection @ 256 ppm [5]: 84%

CCCCCCCCCCCCSCC[N+](C)(C)C [Compound 8]
% Protection @ 10,000 ppm [1]: 19% | % Protection @ 4 ppm [2]: 7% | % Protection @ 8 ppm [2]: 13% | % Protection @ 16 ppm [2]: 23% | % Protection @ 256 ppm [2]: 81% | % Protection @ 4 ppm [3]: 3% | % Protection @ 256 ppm [3]: 78% | Solubility in 5% NaCl brine [4]: sol | Solubility in aromatic naphtha [4]: disp | Solubility in distilled water [4]: sol | Solubility in kerosene [4]: disp | % Protection @ 2 ppm ([6]; Table VI confirmatory test): 9% | % Protection @ 4 ppm ([6]; Table VI confirmatory test): 19% | % Protection @ 8 ppm ([6]; Table VI confirmatory test): 18% | % Protection @ 32 ppm ([6]; Table VI confirmatory test): 62% | % Protection @ 128 ppm ([6]; Table VI confirmatory test): 82% | % Protection @ 4 ppm [5]: 14% | % Protection @ 256 ppm [5]: 76%

CCCCCCCCCCCC[N+](C)(C)CCS [Compound 2]
% Protection @ 10,000 ppm [1]: 64% | % Protection @ 4 ppm [2]: 35% | % Protection @ 8 ppm [2]: 44% | % Protection @ 16 ppm [2]: 67% | % Protection @ 256 ppm [2]: 77% | % Protection @ 4 ppm [3]: 23% | % Protection @ 256 ppm [3]: 79% | Solubility in 5% NaCl brine [4]: disp | Solubility in aromatic naphtha [4]: disp | Solubility in distilled water [4]: sol | Solubility in kerosene [4]: disp | % Protection @ 2 ppm ([6]; Table VI confirmatory test): 13% | % Protection @ 4 ppm ([6]; Table VI confirmatory test): 42% | % Protection @ 8 ppm ([6]; Table VI confirmatory test): 69% | % Protection @ 32 ppm ([6]; Table VI confirmatory test): 82% | % Protection @ 128 ppm ([6]; Table VI confirmatory test): 80% | % Protection @ 2 ppm [6, 7]: 23% | % Protection @ 8 ppm [6, 7]: 72% | % Protection @ 128 ppm [6, 7]: 84% | % Protection @ 4 ppm [5]: 56% | % Protection @ 256 ppm [5]: 81%

CCCCCCCCSCC[N+](C)(C)C [Compound 7]
% Protection @ 10,000 ppm [1]: 11% | % Protection @ 4 ppm [2]: 15% | % Protection @ 8 ppm [2]: 17% | % Protection @ 16 ppm [2]: 11% | % Protection @ 256 ppm [2]: 31% | % Protection @ 4 ppm [3]: 7% | % Protection @ 256 ppm [3]: 72% | Solubility in 5% NaCl brine [4]: sol | Solubility in aromatic naphtha [4]: disp | Solubility in distilled water [4]: sol | Solubility in kerosene [4]: disp | % Protection @ 4 ppm [5]: 29% | % Protection @ 256 ppm [5]: 65%

CCCCCCCCCCCCCCCCCC[N+](C)(C)CCCS [Compound 6]
% Protection @ 10,000 ppm [1]: 71% | % Protection @ 4 ppm [2]: 11% | % Protection @ 8 ppm [2]: 26% | % Protection @ 16 ppm [2]: 59% | % Protection @ 256 ppm [2]: 75% | % Protection @ 4 ppm [3]: 14% | % Protection @ 256 ppm [3]: 71% | Solubility in 5% NaCl brine [4]: insol | Solubility in aromatic naphtha [4]: disp | Solubility in distilled water [4]: sol | Solubility in kerosene [4]: disp | % Protection @ 2 ppm ([6]; Table VI confirmatory test): 30% | % Protection @ 4 ppm ([6]; Table VI confirmatory test): 74% | % Protection @ 8 ppm ([6]; Table VI confirmatory test): 75% | % Protection @ 32 ppm ([6]; Table VI confirmatory test): 80% | % Protection @ 128 ppm ([6]; Table VI confirmatory test): 85% | % Protection @ 4 ppm [5]: 83%

CCCCCCCCCCCC[N+](C)(C)CCCS [Compound 5]
% Protection @ 10,000 ppm [1]: 25% | % Protection @ 4 ppm [2]: 30% | % Protection @ 8 ppm [2]: 59% | % Protection @ 16 ppm [2]: 67% | % Protection @ 256 ppm [2]: 76% | % Protection @ 4 ppm [3]: 17% | % Protection @ 256 ppm [3]: 77% | Solubility in 5% NaCl brine [4]: sol | Solubility in aromatic naphtha [4]: disp | Solubility in distilled water [4]: sol | Solubility in kerosene [4]: disp | % Protection @ 2 ppm ([6]; Table VI confirmatory test): 45% | % Protection @ 4 ppm ([6]; Table VI confirmatory test): 63% | % Protection @ 8 ppm ([6]; Table VI confirmatory test): 79% | % Protection @ 32 ppm ([6]; Table VI confirmatory test): 80% | % Protection @ 128 ppm ([6]; Table VI confirmatory test): 78% | % Protection @ 4 ppm [5]: 82% | % Protection @ 256 ppm [5]: 85%

CCCCCCCC[N+](C)(C)CCCS [Compound 4]
% Protection @ 10,000 ppm [1]: 14% | % Protection @ 4 ppm [2]: 32% | % Protection @ 8 ppm [2]: 55% | % Protection @ 16 ppm [2]: 66% | % Protection @ 256 ppm [2]: 76% | % Protection @ 4 ppm [3]: 3% | % Protection @ 256 ppm [3]: 81% | Solubility in 5% NaCl brine [4]: disp | Solubility in aromatic naphtha [4]: disp | Solubility in distilled water [4]: sol | Solubility in kerosene [4]: disp | % Protection @ 2 ppm ([6]; Table VI confirmatory test): 41% | % Protection @ 4 ppm ([6]; Table VI confirmatory test): 63% | % Protection @ 8 ppm ([6]; Table VI confirmatory test): 82% | % Protection @ 32 ppm ([6]; Table VI confirmatory test): 80% | % Protection @ 128 ppm ([6]; Table VI confirmatory test): 78% | % Protection @ 2 ppm [6, 7]: 62% | % Protection @ 8 ppm [6, 7]: 86% | % Protection @ 128 ppm [6, 7]: 85% | % Protection @ 4 ppm [5]: 83% | % Protection @ 256 ppm [5]: 86%

CCCCCCCCSCCC[N+](C)(C)C [Compound 10]
% Protection @ 10,000 ppm [1]: 8% | % Protection @ 4 ppm [2]: 18% | % Protection @ 8 ppm [2]: 23% | % Protection @ 16 ppm [2]: 24% | % Protection @ 256 ppm [2]: 50% | % Protection @ 4 ppm [3]: 12% | % Protection @ 256 ppm [3]: 75% | Solubility in 5% NaCl brine [4]: sol | Solubility in aromatic naphtha [4]: disp | Solubility in distilled water [4]: sol | Solubility in kerosene [4]: disp | % Protection @ 2 ppm ([6]; Table VI confirmatory test): 10% | % Protection @ 4 ppm ([6]; Table VI confirmatory test): 12% | % Protection @ 8 ppm ([6]; Table VI confirmatory test): 20% | % Protection @ 32 ppm ([6]; Table VI confirmatory test): 25% | % Protection @ 128 ppm ([6]; Table VI confirmatory test): 51% | % Protection @ 4 ppm [5]: 81%

CCCCCCCCCC[N+](C)(C)C [C10 H21 NMe3 I, reference compound]
corrosion protection / performance (in words) ([6]; Table VII): too short an alkyl chain length to function effectively as a corrosion inhibitor | % Protection @ 2 ppm [6, 7]: 0% | % Protection @ 8 ppm [6, 7]: 4% | % Protection @ 128 ppm [6, 7]: 3%

CCCCCCCCCCCCS [C12 H25 SH, dodecane thiol, reference compound]
corrosion protection / performance (in words) ([6]; Table VII): neither did dodecene thiol alone give any corrosion protection | % Protection @ 2 ppm [6, 7]: 4% | % Protection @ 8 ppm [6, 7]: 7% | % Protection @ 128 ppm [6, 7]: 0%

CCCCCCCCCCCCCCCCCCSCC[N+](C)(C)C [Compound 9]
% Protection @ 10,000 ppm [1]: 17% | % Protection @ 4 ppm [2]: 26% | % Protection @ 8 ppm [2]: 33% | % Protection @ 16 ppm [2]: 52% | % Protection @ 256 ppm [2]: 66% | % Protection @ 4 ppm [3]: 6% | % Protection @ 256 ppm [3]: 75% | Solubility in 5% NaCl brine [4]: insol | Solubility in aromatic naphtha [4]: disp | Solubility in distilled water [4]: disp | Solubility in kerosene [4]: disp | % Protection @ 4 ppm [5]: 38% | % Protection @ 256 ppm [5]: 84%
